In paper PMC5513091, “A novel Alzheimer’s disease drug candidate targeting inflammation and fatty acid metabolism” (Alzheimer's Research & Therapy, 2017):

Tests used:
[1] = test system: human neural precursor cells (NPCs); parameters: method as in PMID 27149904; conditions: compared with J147; cited from earlier work
Aβ plaque = test system: Aβ plaque; parameters: method as in PMID 27149904; conditions: early study; cited from earlier work
APPswe/PS1∆E9 mice [2] = experiment: Fear-conditioning assay; assay type: in vivo; conditions: AD mice fed 200 ppm in chow for 3 months from 10 months of age; day 2
Method: The APPswe/PS1∆E9-transgenic mice were characterized previously. Line 85 mice carry two transgenes, the mouse/human chimeric APPswe, linked to Swedish familial AD and human PS1∆E9. At 10 months of age, female transgenic mice were fed a defined diet (Harlan Teklad; Envigo, Indianapolis, IN, USA) with and without CAD-31 (200 ppm, approximately 10 mg/kg/day). Treatment continued for 3 months, followed by behavior testing and tissue harvesting.
Fear conditioning to either a cue or a context represents a form of associative learning. The readout that is measured in contextual and cued fear conditioning is a freezing response that occurs following the pairing of an unconditioned stimulus, such as a foot shock, with a conditioned stimulus, such as a particular context or cue (tone). The mouse will freeze if it remembers and associates that environment with the aversive stimulus. The hippocampus and the amygdala are required for fear memory, where the hippocampus is involved in the formation and retrieval of context fear associations and the amygdala is involved in conditioning and recall of associations to contextual and discrete cues. […] On day 2, the time spent freezing is measured over the entire time in the chamber. […] The percentage of time spent freezing by each mouse is averaged per group, and then groups can be compared and p values calculated to determine statistical significance.

CYP 1A2 = CYP 1A2 (Homo sapiens, UniProt P05177); experiment: CYP inhibition; assay type: in vitro ADME
Chain of CYP 1A2 (P05177 whole entry): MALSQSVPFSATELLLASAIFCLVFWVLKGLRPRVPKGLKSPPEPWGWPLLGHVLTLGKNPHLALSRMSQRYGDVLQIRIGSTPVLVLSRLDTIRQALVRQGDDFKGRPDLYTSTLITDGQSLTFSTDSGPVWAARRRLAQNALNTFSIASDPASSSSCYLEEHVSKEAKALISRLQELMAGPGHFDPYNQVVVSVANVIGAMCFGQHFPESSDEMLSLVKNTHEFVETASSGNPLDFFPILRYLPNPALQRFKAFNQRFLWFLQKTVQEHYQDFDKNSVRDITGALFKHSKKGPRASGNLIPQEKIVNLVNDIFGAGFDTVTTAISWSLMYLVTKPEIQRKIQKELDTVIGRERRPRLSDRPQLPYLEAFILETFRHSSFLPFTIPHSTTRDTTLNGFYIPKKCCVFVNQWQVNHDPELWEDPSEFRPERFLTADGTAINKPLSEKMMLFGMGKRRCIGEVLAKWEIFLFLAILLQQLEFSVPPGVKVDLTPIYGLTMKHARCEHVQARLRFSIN

hERG = hERG (Homo sapiens, UniProt Q12809); experiment: hERG assay
Chain of hERG (Q12809 whole entry): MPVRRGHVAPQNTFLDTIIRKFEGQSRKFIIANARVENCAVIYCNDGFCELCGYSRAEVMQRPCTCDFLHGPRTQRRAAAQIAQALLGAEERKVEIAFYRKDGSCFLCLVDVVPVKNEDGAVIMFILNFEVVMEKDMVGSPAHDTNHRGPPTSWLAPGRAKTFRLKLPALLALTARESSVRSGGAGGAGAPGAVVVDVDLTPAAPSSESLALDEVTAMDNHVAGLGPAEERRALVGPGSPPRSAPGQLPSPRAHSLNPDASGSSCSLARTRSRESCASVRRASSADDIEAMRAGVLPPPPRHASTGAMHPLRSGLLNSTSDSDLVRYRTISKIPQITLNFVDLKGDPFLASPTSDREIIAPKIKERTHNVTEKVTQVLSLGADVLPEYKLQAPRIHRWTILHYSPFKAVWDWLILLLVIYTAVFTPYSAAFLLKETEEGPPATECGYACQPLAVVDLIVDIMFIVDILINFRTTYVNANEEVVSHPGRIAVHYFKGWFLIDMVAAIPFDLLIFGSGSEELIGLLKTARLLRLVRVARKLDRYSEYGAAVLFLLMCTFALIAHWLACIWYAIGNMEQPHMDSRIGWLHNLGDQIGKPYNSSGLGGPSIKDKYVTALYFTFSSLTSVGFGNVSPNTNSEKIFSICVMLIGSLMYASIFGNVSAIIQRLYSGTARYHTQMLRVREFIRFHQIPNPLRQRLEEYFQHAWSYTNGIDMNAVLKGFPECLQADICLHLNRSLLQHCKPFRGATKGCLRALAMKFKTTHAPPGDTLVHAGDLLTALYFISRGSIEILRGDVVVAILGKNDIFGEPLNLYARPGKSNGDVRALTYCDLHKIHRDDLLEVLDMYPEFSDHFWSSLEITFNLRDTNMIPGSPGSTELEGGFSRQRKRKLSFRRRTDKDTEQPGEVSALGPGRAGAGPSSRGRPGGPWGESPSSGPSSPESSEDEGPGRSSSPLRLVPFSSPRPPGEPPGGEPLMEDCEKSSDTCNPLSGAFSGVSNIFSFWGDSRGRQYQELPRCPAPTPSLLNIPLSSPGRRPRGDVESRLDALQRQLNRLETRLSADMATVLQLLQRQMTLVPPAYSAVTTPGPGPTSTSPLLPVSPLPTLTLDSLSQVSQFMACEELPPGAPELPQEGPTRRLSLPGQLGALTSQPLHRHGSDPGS

APPswe/PS1∆E9 mice [3] = experiment: Open-field assay; assay type: in vivo; conditions: old mice, 200 ppm in chow for 3 months; data not shown
Caco 2 = Caco 2 Transport; assay type: in vitro ADME
APPswe/PS1ΔE9 mice = test system: APPswe/PS1ΔE9 mice; parameters: method as in PMID 27149904; conditions: old APPswe/PS1ΔE9 mice fed from an early age, preventive strategy; cited from earlier work

Structure (SMILES): Cc1ccc(N(/N=C/c2cccc(OC(F)(F)F)c2)C(=O)C(F)(F)F)c(C)c1 [CAD-31]
- neurogenic activity [1]: enhanced neurogenic activity over J147
- Aβ plaque density or size (Aβ plaque): no effect on Aβ plaque density or size
- time freezing in response to the context (APPswe/PS1∆E9 mice [2]): more time freezing in response to the context
- EC50 at 10 µM (CYP 1A2): > 10 µM
- activity in the hERG assay (hERG; 10 μM): showed no sign of acute toxicity or activity
- EC50 at 10 µM (hERG; human): > 10 µM
- open-field assay, overt toxicity (APPswe/PS1∆E9 mice [3]): no differences between groups
- Caco 2 Transport (Caco 2): High
- division of NPCs in the subventricular zone (APPswe/PS1ΔE9 mice): stimulates the division of NPCs in the subventricular zone
